In assay [1] the target is Human platelet cyclic AMP phosphodiesterase (PDE3) (Homo sapiens, UniProt Q14432). Briefly: In vitro assay for measuring cAMP PDE-3 inhibitory activity. Format: biochemical. Particulars: 10 min at 30° C., n=3. On the procedure:
Three assays each were performed for each of five test compound concentrations, the mean of the determinations (n=3) at each concentration was plotted, and IC50 values were determined graphically.

The target in assay [2] is T1, human recombinant beta-1 receptors expressed in CHO-REX16 cells (Homo sapiens, UniProt P08588).
T1 construct: expressed in transfected cells; host or cells: CHO-REX16 cells
The experiment in a line: Radioligand binding for β1-receptor affinity ([125I](−)Iodocyanopindolol). The note with it: at a concentration of 100 nM; read-out: inhibition of β1-adrenergic binding. On the procedure: β1-Adrenergic receptor binding was measured in human recombinant beta-1 receptors expressed in CHO-REX16 cells, using [^125I] (−) Iodocyanopindolol (2000 Ci/mmol) as the radioligand, as described in Kalaria et al., J. Neurochem. 53: 1772-81 (1998), and Minneman et al., Mol. Pharmacol. 16: 34-46 (1979). Compounds 17d, 21, 31b, 46a, and 46b each inhibited greater than 25% β1-adrenergic binding at a concentration of 100 nM.

For assay [3], the target named is T2, human recombinant beta-2 receptors expressed in CHO-WT21 cells (Homo sapiens, UniProt P07550).
T2 construct: expressed in transfected cells; host or cells: CHO-WT21 cells
The experiment in a line: Radioligand binding for β2-receptor affinity ([125I](−)Iodocyanopindolol). The note with it: at a concentration of 100 nM, read-out: inhibition of β1-adrenergic binding (as printed, β2-receptor assay). On the procedure:
β2-Adrenergic receptor binding was measured in human recombinant beta-2 receptors expressed in CHO-WT21 cells, using [^125I] (−) Iodocyanopindolol (2000 Ci/mmol) as the radioligand, as described in Kalaria et al. (1998) and Minneman et al. (1979), supra. Compounds 17d, 21, 31b, 46a, and 46b each inhibited greater than 25% β1-adrenergic binding at a concentration of 100 nM.

Molecules are shown by their SMILES. Some results are limits rather than exact numbers.

In general, IC50 refers to the concentration needed to halve the response being measured. By inhibition is commonly meant the change of the read-out against control, counted positive when it falls.

T2 sequence (P07550 whole entry): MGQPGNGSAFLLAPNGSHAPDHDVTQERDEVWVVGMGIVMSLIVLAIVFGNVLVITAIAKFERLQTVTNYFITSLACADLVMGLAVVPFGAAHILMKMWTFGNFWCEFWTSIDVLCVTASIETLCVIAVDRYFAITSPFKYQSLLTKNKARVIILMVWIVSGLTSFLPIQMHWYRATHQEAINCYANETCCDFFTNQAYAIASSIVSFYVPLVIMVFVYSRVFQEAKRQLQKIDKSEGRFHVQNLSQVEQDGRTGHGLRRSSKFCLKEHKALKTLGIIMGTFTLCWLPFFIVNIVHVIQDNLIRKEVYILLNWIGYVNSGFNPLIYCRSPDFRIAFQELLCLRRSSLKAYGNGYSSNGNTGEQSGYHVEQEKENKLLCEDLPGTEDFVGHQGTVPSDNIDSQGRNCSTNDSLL
Chain of Human platelet cyclic AMP phosphodiesterase (PDE3) (Q14432 whole entry): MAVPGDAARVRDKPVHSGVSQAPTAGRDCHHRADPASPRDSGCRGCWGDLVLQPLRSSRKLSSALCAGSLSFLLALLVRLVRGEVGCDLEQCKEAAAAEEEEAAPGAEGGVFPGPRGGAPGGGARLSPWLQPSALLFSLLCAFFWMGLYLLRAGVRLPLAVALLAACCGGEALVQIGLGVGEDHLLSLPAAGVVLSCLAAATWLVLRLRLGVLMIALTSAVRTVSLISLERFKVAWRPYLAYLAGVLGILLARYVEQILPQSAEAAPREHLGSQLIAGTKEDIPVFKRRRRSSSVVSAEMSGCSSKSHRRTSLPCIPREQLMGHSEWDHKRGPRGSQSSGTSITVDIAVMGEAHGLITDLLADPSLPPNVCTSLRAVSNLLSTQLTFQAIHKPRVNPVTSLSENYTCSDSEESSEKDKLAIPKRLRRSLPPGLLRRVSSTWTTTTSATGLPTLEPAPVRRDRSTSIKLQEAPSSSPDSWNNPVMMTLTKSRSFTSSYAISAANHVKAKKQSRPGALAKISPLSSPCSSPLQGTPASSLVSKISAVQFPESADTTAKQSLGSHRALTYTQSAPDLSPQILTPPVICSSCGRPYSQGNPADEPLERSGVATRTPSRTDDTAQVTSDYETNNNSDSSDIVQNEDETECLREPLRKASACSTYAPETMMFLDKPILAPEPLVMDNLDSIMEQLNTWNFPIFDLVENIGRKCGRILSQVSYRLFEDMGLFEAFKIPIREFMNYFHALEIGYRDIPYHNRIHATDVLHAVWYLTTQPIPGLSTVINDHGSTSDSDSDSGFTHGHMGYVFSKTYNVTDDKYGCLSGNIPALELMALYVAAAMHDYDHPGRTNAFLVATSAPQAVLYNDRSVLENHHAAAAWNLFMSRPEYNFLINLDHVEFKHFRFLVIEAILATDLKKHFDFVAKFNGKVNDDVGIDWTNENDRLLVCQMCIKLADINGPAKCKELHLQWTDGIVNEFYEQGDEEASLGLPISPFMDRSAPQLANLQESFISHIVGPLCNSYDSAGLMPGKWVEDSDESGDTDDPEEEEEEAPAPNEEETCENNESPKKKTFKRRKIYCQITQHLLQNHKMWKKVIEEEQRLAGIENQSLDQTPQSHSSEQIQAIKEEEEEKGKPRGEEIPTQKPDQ
T1 sequence (P08588 whole entry): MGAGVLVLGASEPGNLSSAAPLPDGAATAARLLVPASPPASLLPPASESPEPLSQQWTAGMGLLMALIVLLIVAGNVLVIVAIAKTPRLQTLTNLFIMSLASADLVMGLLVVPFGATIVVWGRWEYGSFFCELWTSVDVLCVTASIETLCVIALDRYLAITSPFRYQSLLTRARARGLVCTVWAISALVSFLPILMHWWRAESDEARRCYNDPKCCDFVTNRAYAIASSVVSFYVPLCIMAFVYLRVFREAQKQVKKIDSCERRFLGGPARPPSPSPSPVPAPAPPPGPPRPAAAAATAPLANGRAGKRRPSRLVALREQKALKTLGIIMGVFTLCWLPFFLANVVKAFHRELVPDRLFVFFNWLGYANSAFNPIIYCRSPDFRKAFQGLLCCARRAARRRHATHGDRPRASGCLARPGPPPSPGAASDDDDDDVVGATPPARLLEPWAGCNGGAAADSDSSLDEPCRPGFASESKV

`CC(C)NC[C@H](O)COc1ccc(CCC(=O)NCCNC(=O)COc2ccc(C3=NNC(=O)CC3)cc2Cl)cc1` [Compound 7] came in with an IC50 in assay [1] of under 100 nM.
`CC(C)NC[C@H](O)COc1ccc(C(=O)NCCNC(=O)COc2ccc(C3=NNC(=O)CC3)cc2Cl)cc1` [Compound 12a] came in with an IC50 in assay [1] of under 1000 nM.
On the same count and under the same terms, under `CC(C)NC[C@H](O)COc1ccc(CC(=O)NCCNC(=O)COc2ccc(C3=NNC(=O)CC3)cc2Cl)cc1` [Compound 12b, N-(2-{2-[2-Chloro-4-(6-oxo-1,4,5,6-tetrahydropyridazin-3-yl)-phenoxy]-acetylamino}-ethyl)-2-(4-((S)-2-hydroxy-3-isopropylamino-propoxy)-phenyl]-acetamide] stands under 100 nM; under `CC(C)(C)NC[C@H](O)COc1ccc(C(=O)NCCNC(=O)COc2ccc(C3=NNC(=O)CC3)cc2Cl)cc1` [Compound 13, 4-((S)-3-tert-Butylamino-2-hydroxy-propoxy)-N-(2-{2-[2-chloro-4-(6-oxo-1,4,5,6-tetrahydropyridazin-3-yl)-phenoxy]-acetylamino}-ethyl)-benzamide], under 1000 nM; under `CC(C)NCC(O)COc1ccc(CNC(=O)COc2ccc(C3=NNC(=O)CC3)cc2Cl)cc1` (stereo not shown) [Compound 17a, 2-[2-Chloro-4-(6-oxo-1,4,5,6-tetrahydro-pyridazin-3-yl)-phenoxy]-N-[4-(2-hydroxy-3-isopropylamino-propoxy)-benzyl]-acetamide], under 1000 nM.
On the same count and under the same terms, under `CC(C)(C)NCC(O)COc1ccc(CNC(=O)COc2ccc(C3=NNC(=O)CC3)cc2Cl)cc1` (stereo not shown) [Compound 17b, N-[4-(3-tert-Butylamino-2-hydroxy-propoxy)-benzyl]-2-[2-chloro-4-(6-oxo-1,4,5,6-tetrahydro-pyridazin-3-yl)-phenoxy]-acetamide] stands under 1000 nM; under `CC(C)NCC(O)COc1ccc(CCNC(=O)COc2ccc(C3=NNC(=O)CC3)cc2Cl)cc1` (stereo not shown) [Compound 17c, 2-[2-Chloro-4-(6-oxo-1,4,5,6-tetrahydro-pyridazin-3-yl)-phenoxy]-N-{2-[4-(2-hydroxy-3-isopropylamino-propoxy)-phenyl]-ethyl}-acetamide], under 100 nM.
Turning to `CC(C)(C)NCC(O)COc1ccc(CCNC(=O)COc2ccc(C3=NNC(=O)CC3)cc2Cl)cc1` (stereo not shown) [Compound 17d, N-{2-[4-(3-tert-Butylamino-2-hydroxy-propoxy)-phenyl]-ethyl}-2-[2-chloro-4-(6-oxo-1,4,5,6-tetrahydro-pyridazin-3-yl)-phenoxy]-acetamide], the half-maximal inhibitory concentration (IC50) in assay [1] is under 100 nM. The inhibition at 0.1 µM in assay [2] and in assay [3] was over 25% throughout.
`CC(C)(C)NC[C@H](O)COc1ccc(CCNC(=O)COc2ccc(C3=NNC(=O)CC3)cc2)cc1` [Compound 21, N-{2-[4-((S)-3-tert-butylamino-2-hydroxy-propoxy)-phenyl]-ethyl}-2-[4-(6-oxo-1,4,5,6-tetrahydro-pyridazin-3-yl)-phenoxy]-acetamide] displayed an IC50 in assay [1] of under 1000 nM. For the same molecule, the inhibition at 0.1 µM in assay [2] and in assay [3] was over 25% each time.
In assay [1], `CC(C)NCC(O)COc1ccc(COCCCOc2ccc(C3=NNC(=O)CC3)cc2Cl)cc1` (stereo not shown) [Compound 31a, 6-(3-Chloro-4-{3-[4-(2-hydroxy-3-isopropylamino-propoxy)-benzyloxy]-propoxy}-phenyl)-4,5-dihydro-2H-pyridazin-3-one] returned a concentration for half-maximal inhibition (IC50) of under 1000 nM.
With `CC(C)(C)NCC(O)COc1ccc(COCCCOc2ccc(C3=NNC(=O)CC3)cc2Cl)cc1` (stereo not shown) [Compound 31b, 6-(4-{3-[4-(3-tert-Butylamino-2-hydroxy-propoxy)-benzyloxy]-propoxy}-3-chloro-phenyl)-4,5-dihydro-2H-pyridazin-3-one], the IC50 in assay [1] was under 100 nM. Moreover, the inhibition at 0.1 µM in assay [2] and in assay [3] was over 25% each time.
In turn, `CC(C)NCC(O)COc1ccc(CCOc2ccc(C3=NNC(=O)CC3)cc2Cl)cc1` (stereo not shown) [Compound 37a, 6-(3-Chloro-4-{2-[4-(2-hydroxy-3-isopropylamino-propoxy)-phenyl]-ethoxy}-phenyl)-4,5-dihydro-2H-pyridazin-3-one] displayed a half-inhibitory concentration (IC50) in assay [1] of under 100 nM.
`CC(C)(C)NCC(O)COc1ccc(CCOc2ccc(C3=NNC(=O)CC3)cc2Cl)cc1` (stereo not shown) [Compound 37b, 6-(4-{2-[4-(3-tert-Butylamino-2-hydroxy-propoxy)-phenyl]-ethoxy}-3-chloro-phenyl)-4,5-dihydro-2H-pyridazin-3-one] had an IC50 in assay [1] of under 100 nM.
In assay [1], `CC(C)NC[C@H](O)COc1ccc(CCOCCCOc2ccc(C3=NNC(=O)CC3)cc2Cl)cc1` [Compound 46a, 6-[3-Chloro-4-(3-{2-[4-((S)-2-hydroxy-3-isopropylamino-propoxy)-phenyl]-ethoxy}-propoxy)-phenyl]-4,5-dihydro-2H-pyridazin-3-one] came in with an IC50 of under 100 nM. In addition, the inhibition at 0.1 µM in assay [2] and in assay [3] was over 25% each time.
Molecule `CC(C)(C)NC[C@H](O)COc1ccc(CCOCCCOc2ccc(C3=NNC(=O)CC3)cc2Cl)cc1` [Compound 46b, 6-[4-(3-{2-[4-((S)-3-tert-Butylamino-2-hydroxy-propoxy)-phenyl]-ethoxy}-propoxy)-3-chloro-phenyl]-4,5-dihydro-2H-pyridazin-3-one] had an IC50 in assay [1] of under 100 nM. For the same molecule, the inhibition at 0.1 µM in assay [2] and in assay [3] was over 25% throughout.
